{
  "source": "paper PMC12970513",
  "about": "“Unsaturated Phosphorus Electrophiles to Probe Protein Tyrosine Phosphatases” (Angewandte Chemie (International Ed. in English), 2026)",
  "test_system": "PTP1B in MCF-7 cell lysate",
  "experiment": "Proteomic profiling (SP2E enrichment, LC-MS/MS), MCF-7 lysate",
  "parameters": "species or system human",
  "settings": "500 µM SM-PO, vs DMSO",
  "description": "Finally, we employed bottom‐up proteomics to validate that the labeled protein corresponds to the intended target PTP1B. For this, first MCF‐7 cell lysate (400 µg) was treated with 500 µM bio‐PO for 4 h. Directly afterwards, we applied a protocol described by the Kielkowski group, termed SP2E, which integrates protein purification with magnetic carboxyl‐coated beads and enrichment using magnetic streptavidin beads (Figure 5c). […] We reasoned that this might be due to the lower abundance of PTP1B in HEK293T compared to MCF‐7 lysate. Therefore, the protocol was repeated by doubling the proteome input to 800 µg. Following this minor adjustment, PTP1B was then enriched in our analysis (>4‐fold) (Figure 5e). […] However, this protein is included in the contamination repository for affinity purification (CRAPome) and appears in about half of such experiments as a contaminant. Given the comparably low PTP1B levels in Ramos lysate, we refrained from attempting pull‐down experiments from this cell line. […]\nFor proteome labelling using the SP2E workflow, a modified protocol by Becker et al. was followed.^[13] […] Tryptic peptides were eluted from the magnetic beads using a magnetic rack, samples were diluted and analyzed by qToF for purity i.e. absence of detergents and successful trypsin digestion. […]",
  "data": [
    {"smiles": "C#CP(=O)(O)Oc1ccc(CCNC(=O)CCCC[C@@H]2SC[C@@H]3NC(=O)N[C@@H]32)cc1", "note": "[SM-PO, 4-(2-biotinamidoethyl)phenyl ethynylphosphonic acid monoester]", "values": [
      {"measurement": "other proteins enriched by SM-PO", "value": "adipocyte plasma membrane–associated protein (APMAP) was identified among the enriched proteins"},
      {"measurement": "enrichment of PTP1B or other phosphatases by SM-PO", "setting": "enrichment >2 log2 fold change, p ≤ 0.05", "value": "neither PTP1B nor any other phosphatase was significantly enriched"}
    ]}
  ]
}
